Numbering of substitutions follows the chain as printed. Read-outs that look alike come from different tables or passages of the source.
Assays:
RL = assay: In vitro growth inhibition of RL B-cell lymphoma line; format: cell-based; conditions: for IC50: read-out: IC50 of calicheamicin
From the text: (§1) The effect of CMC-544 made by using CMA-676 and CMC-544 processes on the in vitro growth of CD22^+ B-Cell lymphoma cell lines, RL, Daudi, Raji and Ramos, were compared. An isotype-matched calicheamicin conjugate targeted at human CD33 (CMA-676) was used to reflect antigen-non-specific effects of the conjugate. […] CD22-mediated delivery of calicheamicin to the CD22^+ cells was at least 10 times more efficient in killing the target cells than the unconjugated drug itself. […] It is apparent from Table 4 that conjugate made by the CMC-544 conjugation process can generate equivalent cytotoxic effect at lower antibody concentrations than conjugate made by the CMA-676 conjugation process.

Daudi = assay: In vitro growth inhibition of Daudi B-cell lymphoma line; format: cell-based; conditions: Daudi #1; for IC50: read-out: IC50 of calicheamicin
From the text: as §1

Raji = assay: In vitro growth inhibition of Raji B-cell lymphoma line; format: cell-based; conditions: for IC50: read-out: IC50 of calicheamicin
From the text: as §1

Ramos = assay: In vitro growth inhibition of Ramos B-cell lymphoma line; format: cell-based, human; conditions: for IC50: read-out: IC50 of calicheamicin
From the text: as §1

RL NHL xenografts = RL NHL xenografts staged to 300-400 mg in nude mice; format: in vivo; conditions: 160 μg/kg intraperitoneally
Protocol: Similar studies were carried out using the RL lymphoma model. […] CMC-544 in a dose-dependent manner caused tumors to regress over a 3-week time frame. The minimally effective dose of CMC-544 in the RL lymphoma model was established from statistical analyses of these studies to be 20 μg/kg based on calicheamicin content. There were no deaths in any of these three studies.
The observed anti-tumor efficacy was dose-dependent as expected and there was no difference in the efficacies of either of the two CMC-544 preparations. […] However, it should be emphasized that for each dose of conjugated calicheamicin, the quantity of antibody protein administered in the form of a conjugate was four times higher for CMC-544 made by the CMA-676 process versus that made by the CMC-544 process. Since the calicheamicin content of the targeted conjugate is primarily responsible for causing the anti-tumor effect, it is possible to deliver the required quantity of calicheamicin via the conjugate made by the new procedure using much smaller quantities of the targeting antibody. The increased loading of the conjugate made by the CMC-544 process is, in effect, due to the lack of significant amounts of the low conjugated fraction (LCF).

large RAMOS lymphoma = assay: Large established RAMOS lymphoma xenografts; format: in vivo, nude mice; conditions: 160 μg/kg ip, days 1, 5 and 9
Protocol: The ability of CMC-544 made by the new procedure to inhibit growth of large established B-cell lymphoma xenografts using both the RAMOS and RL lymphoma models was also investigated. The tumors were allowed to grow and staged to 1.5 or 2 g of tumor mass after which CMC-544 or an isotype-matched negative control conjugate (CMA-676) were administered intraperitoneally at the dose of 160 μg/kg of conjugated calicheamicin keeping the original schedule of dosing on days 1, 5 and 9.
The same schedule of dosing was shown earlier to cause long lasting regression of small staged tumors (see Table 6).

Ramos cells [1] = assay: Disseminated RAMOS B lymphoma in SCID mice, developing model; format: in vivo
Protocol: (§2) Male SCID mice (CB17 SCID), 20-25 g, were injected with […] through the tail vein (0.2 ml). […] For the day 3 treatment schedule, mice were dosed on days 3, 7, and 11. For the day 9 treatment schedule, mice were dosed on days 9, 13 and 17. […] Mice were monitored daily for the presence of hind limb paralysis at which time they were killed. Seven to 10 mice per treatment group were used. The group average survival time (±SD), median, minimum, and maximum survival times were all calculated. The difference in survival distribution between groups was determined by using a nonparametric Log-rank test with significance reported at the 0.05 level. The survival curves were constructed using the Kaplan-Meier method.
(§3) The initial study examined the effect of two different dosing schedules on survival times of the SCID mice with the disseminated lymphoma. The first study looked at initiating drug dosing 3 days after the tumor cells were injected intravenously (developing model), while the second study delayed drug dosing until 9 days post tumor cell injection (established model).

Ramos cells [2] = assay: Disseminated RAMOS B lymphoma in SCID mice, established model; format: in vivo
Protocol: as §2
as §3, with “model). […]” for “model).”

CD22mFc = assay: BIACORE biosensor binding analysis of CMC-544 and G5/44; conditions: Table 3
Protocol: Biosensor analyses were carried out using a BIACORE™ 2000 (BIAcore AB, Uppsala, Sweden). CD22mFc was covalently immobilized on the N-hydroxysuccinimide-activated carboxymethyl dextran-coated biosensor chip (CM5) using a standard amine-coupling chemistry at a protein density of approximately 2000 resonance units. Samples of CMC-544 or G5/44 were diluted in the HBS buffer (10 mM HEPES, pH 7.4, containing 150 mM NaCl, 3 mM EDTA and 0.005% polysorbate 20 (v/v)) and injected in the concentration range of 1 to 100 nM over the CD22mFc-coated biosensor chip surface at a flow rate of 30 μl/min for 3 min to allow binding. After the binding phase, dissociation of the bound antibody was monitored by washing the chip with the HBS buffer over a 15 minute period. The antigenic surface was regenerated by washing the Biosensor chip with 15 μl of the regeneration buffer (10 mM NaOH and 200 mM NaCl) for 30 seconds, followed by a stabilization time of 2 minutes before the next cycle. Kinetic constants were calculated by nonlinear least square regression analysis using a 1:1 Langmuir binding curve fitting model and BIAevaluation program (version 3.0, BIAcore). The antigen binding of CMC-544 was evaluated by surface plasmon resonance analysis using CD22mFc covalently immobilized on a biosensor chip.

[3] = test system: CD22− CD33+ HL-60 leukemia cells; assay: Flow cytometry binding to HL-60 leukemia cells; conditions: data not shown
From the text: Purified human polyclonal IgG1 and IgG4 were also used as negative controls.

RAMOS B-cell lymphoma = RAMOS B-cell lymphoma xenograft growth; format: in vivo; conditions: 10 mg/kg intraperitoneal, subcutaneous xenografts
From the text: In Vivo Cytotoxicity. CMC-544 made by the CMC-544 process was further evaluated in B-cell lymphoma xenografts. In these studies, two B-cell lymphoma tumors, RAMOS and RL, were used. RL lymphoma is a non-Burkitt's NHL-derived cell line whereas RAMOS was originally derived from a Burkitt's lymphoma.

CD22-mFc = assay: BIACORE affinity of chimeric 5/44 and its variants; format: binding; conditions: CDR-H2 mutants of chimeric 5/44
Protocol: The activities of the chimeric genes were evaluated following transient transfection into CHO cells and determination of affinity constants by BIACORE™ analysis.
The affinities of chimeric 5/44 or its variants, which have had their glycosylation site or their reactive lysine removed, were investigated using BIA technology for binding to CD22-mFc constructs. All binding measurements were performed in the BIACORE™ 2000 instrument (Pharmacia Biosensor AB, Uppsala, Sweden). The assay was performed by capture of CD22mFc via the immobilized anti-mouse Fc. The antibody was in the soluble phase. Samples, standard, and controls (50 μl) were injected over immobilized anti-mouse Fc followed by antibody in the soluble phase. After each cycle, the surface was regenerated with 50 μl of 40 mM HCl at 30 μl/min. The kinetic analysis was performed using the BIAevaluation 3.1 software (Pharmacia).

cell surface CD22 = target: T1, cell surface CD22 (Homo sapiens, UniProt P20273); assay: Competition assay against mouse 5/44 antibody for binding to Ramos cells; conditions: grafted variants expressed in CHO cells
T1 construct: host or cells: Ramos (Burkitt's lymphoma)
From the text: The vectors encoding grafted variants were co-transfected into CHO cells in a variety of combinations, together with the original chimeric antibody chains. Binding activity was compared in a competition assay, competing the binding of the original mouse 5/44 antibody for binding to Ramos cells (obtained from ATCC, a Burkitt's lymphoma lymphoblast human cell line expressing surface CD22). This assay was considered the best way to compare the grafts in their ability to bind to cell surface CD22.

[4] = Table 8, conjugates 160 μg/kg, rituximab 20 mg/kg ip Q4Dx3 from day 3
[5] = Table 8, conjugates 160 μg/kg, rituximab 20 mg/kg ip Q4Dx3 from day 9

Molecule: CCN(C(C)=O)[C@H]1CO[C@@H](O[C@H]2[C@H](O[C@H]3C#C/C=C\C#C[C@]4(O)CC(=O)C(NC(=O)OC)=C3/C4=C\CSSC(C)(C)CC(=O)NN)O[C@H](C)[C@@H](NO[C@H]3C[C@H](O)[C@H](SC(=O)c4c(C)c(I)c(O[C@@H]5O[C@@H](C)[C@H](O)[C@@H](OC)[C@H]5O)c(OC)c4OC)[C@@H](C)O3)[C@@H]2O)C[C@@H]1OC [N-ACETYL GAMMA CALICHEAMICIN DMH, N-Ac gamma calicheamicin DMH, reference compound]
- IC50 (RL; RL #1): 0.226 nM
- IC50 (RL; RL #2): 0.27 nM
- IC50 (Daudi): 0.26 nM
- IC50 (Raji; Raji #1): 0.46 nM
- IC50 (Raji; Raji #2): 0.49 nM
- IC50 (Ramos; Ramos #1): 0.7 nM
- IC50 (Ramos; Ramos #2): 1 nM
- anti-tumor activity of unconjugated drug (RL NHL xenografts): inactive

Molecule: CMA-676: isotype-matched control conjugate of hP67.6 (IgG4, anti-CD33) with AcBut linked calicheamicin [reference compound]
- IC50 of antibody (RL; RL #1): 17.14 µg/mL
- IC50 (RL; RL #1): 0.6 nM
- IC50 of antibody (RL; RL #2): 11.43 µg/mL
- IC50 (RL; RL #2): 0.4 nM
- IC50 of antibody (Daudi): 53.89 µg/mL
- IC50 (Daudi): 1.89 nM
- IC50 of antibody (Raji; Raji #1): 80.00 µg/mL
- IC50 (Raji; Raji #1): 2.8 nM
- IC50 of antibody (Raji; Raji #2): 117.14 µg/mL
- IC50 (Raji; Raji #2): 4.1 nM
- effect on tumor growth (large RAMOS lymphoma): no effect on the tumor growth
- mice sacrificed before day 15 because of tumor burden (large RAMOS lymphoma): Four out of five
- effect on survival time (Ramos cells [1]; 160 μg/kg ip Q4Dx3, p>0.05): did not increase survival time significantly
- Average Survival Time (Ramos cells [1]; [4]): 32.9 days
- Maximum Survival Time (Ramos cells [1]; [4]): 36.0 days
- Median Survival Time (Ramos cells [1]; [4]): 34.0 days
- Minimum Survival Time (Ramos cells [1]; [4]): 28.0 days
- effect on survival times (Ramos cells [2]; 160 μg/kg ip Q4Dx3): no significant effect on survival times
- Average Survival Time (Ramos cells [2]; [5]): 33.7 days
- Maximum Survival Time (Ramos cells [2]; [5]): 42.0 days
- Median Survival Time (Ramos cells [2]; [5]): 31.0 days
- Minimum Survival Time (Ramos cells [2]; [5]): 30.0 days

Molecule: CMC-544 (21 μg/mg) (CMA-676 procedure)
- KA (CD22mFc): 8.1e+09 M⁻¹
- Ka (CD22mFc): 490000 M⁻¹ s⁻¹
- Kd (CD22mFc): 6.1e-05 s⁻¹

Molecule: CMC-544 (87 μg/mg) (CMA-544 procedure)
- KA (CD22mFc): 6.6e+09 M⁻¹
- Ka (CD22mFc): 460000 M⁻¹ s⁻¹
- Kd (CD22mFc): 6.9e-05 s⁻¹

Molecule: CMC-544 PROCESS CMC-544 LOADING 65 μg/mg: CMC-544 made by the CMC-544 conjugation process
- IC50 (RL; RL #1): 0.006 nM
- IC50 (RL; RL #2): 0.012 nM
- IC50 (Daudi): 0.021 nM
- IC50 (Raji; Raji #1): 0.5 nM
- IC50 (Raji; Raji #2): 0.56 nM
- IC50 (Ramos; Ramos #2): 0.26 nM

Molecule: CMC-676 PROCESS CMC-544 LOADING 35 μg/mg: CMC-544 made by the CMA-676 conjugation process
- IC50 (RL; RL #1): 0.03 nM
- IC50 (RL; RL #2): 0.04 nM
- IC50 (Daudi): 0.08 nM
- IC50 (Raji; Raji #2): 0.52 nM

Molecule: G5/44: CDR-grafted humanized antibody directed against cell surface antigen CD22, IgG4 isotype
- KA (CD22mFc): 7.9e+09 M⁻¹
- Ka (CD22mFc): 220000 M⁻¹ s⁻¹
- Kd (CD22mFc): 2.8e-05 s⁻¹
- binding to HL-60 leukemia cells [3]: neither CMC-544 nor G5/44 demonstrated any binding
- IC50 of antibody (RL; RL #1): >100 µg/mL
- IC50 of antibody (RL; RL #2): >100 µg/mL
- IC50 of antibody (Daudi): >100 µg/mL
- IC50 of antibody (Raji; Raji #1): >100 µg/mL
- IC50 of antibody (Raji; Raji #2): >100 µg/mL
- IC50 of antibody (Ramos; Ramos #1): >100 µg/mL
- IC50 of antibody (Ramos; Ramos #2): >100 µg/mL
- effect of unconjugated antibody on tumor growth (RAMOS B-cell lymphoma): no effect on tumor growth

Molecule: K60R: chimeric 5/44 with CDR-H2 mutation K60R removing the reactive lysine
- effect of the mutation on affinity (CD22-mFc): neutral effect on affinity

Molecule: N55Q: chimeric 5/44 with CDR-H2 mutation N55Q removing the glycosylation site
- effect of the mutation on affinity (CD22-mFc): no effect on affinity

B1: gH6: CDR-grafted 5/44 heavy chain graft gH6 (SEQ ID NO: 26) (antibody, V domains shown)
VH: EVQLVQSGAEVKKPGASVKVSCKASGYRFTNYWIHWVRQAPGQGLEWIGGINPGNNYATYRRKFQGRATLTADTSTSTVYMELSSLRSEDTAVYYCTREGYGNYGAWFAYWGQGTLVTVSS
modifications: gH6
- binding activity in competition with mouse 5/44 (cell surface CD22): did not appear to have affected binding

B2: gH7: CDR-grafted 5/44 heavy chain graft gH7 (SEQ ID NO: 27) (antibody, V domains shown)
VH: B1 VH with A68V, L70M
modifications: gH7
- binding activity in competition with mouse 5/44 (cell surface CD22): did not appear to have affected binding
